The record followed here is patent publication US20240294489A1 (Captor Therapeutics S.A., priority 2020, published 2024).

Where a name gives a salt, the structure may show the parent alone.

Holding throughout (assay type): cell-based
One assay has as its system H929 cells. As to the kind of experiment: Cell viability CTG assay, H929. Details: key to Geomean absolute IC50 by molecule, 72 H: Inactive represents IC50 > 50 μM; C represents 50 μM ≥ IC50 > 5 μM. To be noted: H929, 72 h, 0.001-50 μM; for IC50: Homo sapiens, NCI-H929, numeric values, read-out: Geomean absolute IC50 by molecule, 72 H. How it is done:
(§1) The effect of various compounds of the invention and various reference compounds on cell viability in various cell lines was investigated, using the Cell Viability—CTG Assay Protocol below. Hep3B, Kelly, H929, KG-1 and SNU-398 cells were maintained in respective cell medium (see Table 8, below). The cells were seeded on the 96-well or 384-white plates, and the compounds to be tested were added at the desired concentration range. Compounds are diluted in DMSO, and the DMSO concentration is kept constant at 0.25% v/v across the assay plate. After 72 h incubation (37° C., 5% CO2), CellTiter-Glo® Reagent (Promega/G7570) was added to the wells. Plates are shaken for 4 minutes and incubated for 8 minutes in the dark prior to reading luminescence (LU) by using the CLARIOstar Multimode Plate Reader. The signal is proportional to the amount of ATP, which is directly proportional to the number of cells present in the culture.
(§2) Luminescence (RLU) values were normalized to DMSO control. Dose response is assessed by non-linear regression and IC50 calculation with the average of technical duplicate of percentage inhibition. IC50 values are reported as absolute IC50 values, being the concentration of test compound at the intersection of the concentration-response curves with T/C=50%. For calculation of mean IC50 values the geometric mean is used.

The target of the next assay is T1, Ikaros (IKZF1) (Homo sapiens, UniProt Q13422+Q96SW2).
T1 construct: Ikaros degradation in the H929 cell line was investigated; endogenous in cells; host or cells: H929
T1 sequence (Q13422 whole entry): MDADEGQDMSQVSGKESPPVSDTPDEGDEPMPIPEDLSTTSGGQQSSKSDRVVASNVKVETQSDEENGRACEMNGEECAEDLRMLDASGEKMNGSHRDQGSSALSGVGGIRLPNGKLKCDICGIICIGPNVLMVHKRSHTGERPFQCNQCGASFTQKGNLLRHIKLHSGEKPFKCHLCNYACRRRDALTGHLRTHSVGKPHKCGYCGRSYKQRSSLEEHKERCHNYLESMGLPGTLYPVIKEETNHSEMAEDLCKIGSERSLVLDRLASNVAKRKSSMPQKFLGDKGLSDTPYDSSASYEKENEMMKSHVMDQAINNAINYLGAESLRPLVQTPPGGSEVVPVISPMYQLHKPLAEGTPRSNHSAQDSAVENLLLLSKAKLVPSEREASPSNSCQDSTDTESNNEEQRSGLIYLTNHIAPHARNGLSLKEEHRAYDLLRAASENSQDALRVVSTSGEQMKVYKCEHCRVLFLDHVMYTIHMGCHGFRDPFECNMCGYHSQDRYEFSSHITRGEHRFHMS
T1 sequence (Q96SW2 whole entry): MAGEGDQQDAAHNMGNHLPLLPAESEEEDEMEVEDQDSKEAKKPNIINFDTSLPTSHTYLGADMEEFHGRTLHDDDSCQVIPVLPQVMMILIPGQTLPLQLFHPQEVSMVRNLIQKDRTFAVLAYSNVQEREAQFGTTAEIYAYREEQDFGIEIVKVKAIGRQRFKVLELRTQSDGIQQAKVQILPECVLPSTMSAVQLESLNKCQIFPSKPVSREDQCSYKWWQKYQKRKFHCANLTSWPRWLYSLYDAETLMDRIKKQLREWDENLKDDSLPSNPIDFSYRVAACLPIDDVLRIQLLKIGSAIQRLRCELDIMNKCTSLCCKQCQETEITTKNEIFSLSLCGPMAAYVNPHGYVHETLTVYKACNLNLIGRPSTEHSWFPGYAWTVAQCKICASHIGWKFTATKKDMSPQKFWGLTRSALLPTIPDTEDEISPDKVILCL
T1 sequence (Q16531 whole entry partner): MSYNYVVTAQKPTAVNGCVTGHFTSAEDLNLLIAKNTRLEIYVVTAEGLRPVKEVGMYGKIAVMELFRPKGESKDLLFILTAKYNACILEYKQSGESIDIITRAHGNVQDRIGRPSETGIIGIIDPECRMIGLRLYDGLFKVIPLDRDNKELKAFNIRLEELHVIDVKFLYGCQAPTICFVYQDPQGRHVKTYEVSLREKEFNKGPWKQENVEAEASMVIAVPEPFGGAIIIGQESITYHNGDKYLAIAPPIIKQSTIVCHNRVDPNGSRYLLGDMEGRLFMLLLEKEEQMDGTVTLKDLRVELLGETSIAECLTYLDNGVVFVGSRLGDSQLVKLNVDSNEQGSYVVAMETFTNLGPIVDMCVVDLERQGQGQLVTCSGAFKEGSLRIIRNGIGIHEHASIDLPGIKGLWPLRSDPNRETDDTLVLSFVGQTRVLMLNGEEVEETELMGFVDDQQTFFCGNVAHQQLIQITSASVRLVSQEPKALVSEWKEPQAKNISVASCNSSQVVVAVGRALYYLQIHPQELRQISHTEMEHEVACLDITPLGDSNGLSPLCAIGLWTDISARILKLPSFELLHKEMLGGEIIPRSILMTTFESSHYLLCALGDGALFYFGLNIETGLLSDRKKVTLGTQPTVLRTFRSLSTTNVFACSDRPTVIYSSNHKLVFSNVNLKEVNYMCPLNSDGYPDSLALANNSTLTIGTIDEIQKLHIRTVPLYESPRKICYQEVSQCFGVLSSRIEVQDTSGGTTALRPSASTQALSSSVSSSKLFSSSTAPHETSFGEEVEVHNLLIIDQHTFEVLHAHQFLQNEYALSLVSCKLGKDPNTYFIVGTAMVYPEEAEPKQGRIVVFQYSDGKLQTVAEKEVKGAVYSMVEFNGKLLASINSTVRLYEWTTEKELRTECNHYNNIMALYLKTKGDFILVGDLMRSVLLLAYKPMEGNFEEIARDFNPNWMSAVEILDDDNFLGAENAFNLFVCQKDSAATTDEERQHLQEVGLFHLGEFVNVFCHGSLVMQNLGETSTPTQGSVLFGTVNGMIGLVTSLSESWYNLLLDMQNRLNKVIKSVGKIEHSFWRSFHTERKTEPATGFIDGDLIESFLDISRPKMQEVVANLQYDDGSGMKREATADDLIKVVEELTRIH
As to the kind of experiment: Ikaros degradation assay, H929 cell line. To be noted: H929 cells, 24 h; for % of IKZF1 protein reduction: numeric values; for inhibition at 10 µM / inhibition at 20 µM: NCI-H929, read-out: % of IKZF1 protein reduction. How it is done: Cells were seeded on 6- or 12-well plates, and the compounds to be tested were added at the desired concentration range. […] After 24 h incubation (37° C., 5% CO2), cells were harvested, washed and cell lysates were prepared using RIPA lysis buffer. The amount of protein was determined via BCA assay, and the appropriate quantity was then loaded on the precast gel for the protein separation. After primary and secondary Ab staining, the membranes were washed and signals developed. The densitometry analysis was implemented to obtain the numeric values used later in the protein level evaluation process.

For a further assay, the target named is T2, GSPT1 (Homo sapiens, UniProt P15170+Q96SW2).
T2 construct: GSPT1 degradation in the Hep3B cell line was investigated; endogenous in cells; host or cells: Hep3B
T2 sequence (P15170 whole entry): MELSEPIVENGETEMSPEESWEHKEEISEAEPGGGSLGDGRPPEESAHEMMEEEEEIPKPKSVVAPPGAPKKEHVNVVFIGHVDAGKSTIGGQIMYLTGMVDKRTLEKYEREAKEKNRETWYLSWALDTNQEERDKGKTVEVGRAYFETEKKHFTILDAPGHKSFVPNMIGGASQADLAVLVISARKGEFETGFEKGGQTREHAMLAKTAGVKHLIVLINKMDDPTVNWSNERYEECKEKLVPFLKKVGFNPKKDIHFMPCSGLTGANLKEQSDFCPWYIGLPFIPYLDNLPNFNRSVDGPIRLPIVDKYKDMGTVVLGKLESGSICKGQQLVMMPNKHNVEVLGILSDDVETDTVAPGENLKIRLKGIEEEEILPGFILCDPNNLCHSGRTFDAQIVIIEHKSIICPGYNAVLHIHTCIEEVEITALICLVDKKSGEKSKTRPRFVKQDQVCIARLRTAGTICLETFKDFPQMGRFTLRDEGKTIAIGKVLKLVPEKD
T2 sequence (Q96SW2 whole entry): as the sequence (Q96SW2 whole entry) above
T2 sequence (Q16531 whole entry partner): as the sequence (Q16531 whole entry partner) above
Description: GSPT1 degradation assay, Hep3B cell line. To be noted: HEP3B cells, 24 h, read-out: % of GSPT1 protein reduction. How it is done:
Hep3B cells were maintained in EMEM medium, supplemented with penicillin/streptomycin and 10% Fetal Bovine Serum (FBS). Cells were seeded on 6- or 12-well plates, and the compounds to be tested were added at the desired concentration range. Final DMSO concentration was 0.25%. After 24 h incubation (37° C., 5% CO2), cells were harvested, washed and cell lysates were prepared using RIPA lysis buffer. The amount of protein was determined via BCA assay, and the appropriate quantity was then loaded on the precast gel for the protein separation. After primary and secondary Ab staining, the membranes were washed and signals developed. The densitometry analysis was implemented to obtain the numeric values used later in the protein level evaluation process. Densitometry values were normalized to the loading control and calculated as [%] of the DMSO control.

A further assay deals with Hep3B cells. Description: Cell viability CTG assay, Hep3B. Conditions: Homo sapiens, 72 h, 0.001-50 μM, read-out: Hep3B Geomean absolute IC50 by molecule, 72 H. How it is done:
as §1, §2

For the next assay, the system named is KG-1 cells. As to the kind of experiment: Cell viability CTG assay, KG-1. To be noted: Homo sapiens; KG-1, 72 h, 0.001-50 μM; read-out: KG-1 Geomean absolute IC50 by molecule, 72 H. How it is done: as §1, §2

As usually defined, the IC50 is the concentration needed to halve the response being measured. For the compound `Cc1nc2cccc(N)c2c(=O)n1C1CCC(=O)NC1=O` (stereo not drawn) [CC-122, reference compound], in the assay with H929 cells, the IC50 came to 72 nM.
For the compound `O=C1CC[C@@H](N2Cc3c(OCc4ccc(CN5CCOCC5)cc4)cccc3C2=O)C(=O)N1` [CC-220, reference compound], the IC50 with H929 cells was 4 nM.
As for `Cc1ccc(NC(=O)NCc2ccc3c(c2)CN(C2CCC(=O)NC2=O)C3=O)cc1Cl` (stereo not drawn) [CC-885, reference compound], the “% of IKZF1 protein reduction” value on Ikaros (IKZF1) (10 uM) and on Ikaros (IKZF1) (20 uM) was >99% throughout.
For `Cc1cc2c(cc1CN)CN(C1CCC(=O)NC1=O)C2=O` (stereo not drawn) [Compound 4, 3-[5-(aminomethyl)-6-methyl-1-oxo-2,3-dihydro-1H-isoindol-2-yl]piperidine-2,6-dione], the inhibition at 10 µM at Ikaros (IKZF1) (10 uM) lay in the range of 0 to 24%.
Consider `NCc1ccc2c(c1F)CN(C1CCC(=O)NC1=O)C2=O` (stereo not drawn) [Compound 5, 3-[5-(aminomethyl)-4-fluoro-1-oxo-2,3-dihydro-1H-isoindol-2-yl]piperidine-2,6-dione], for which the “Geomean absolute IC50 by molecule, 72 H” value with H929 cells is reported as “Inactive”. Also, the inhibition at 10 µM on Ikaros (IKZF1) (10 uM) lay in the range of 0 to 24%; on GSPT1, 80 to 100%. Moreover, the IC50 in the assay with Hep3B cells lay in the range of 100 to 1000 nM.
As to `Cc1c(CN)ccc2c1CN(C1CCC(=O)NC1=O)C2=O` (stereo not drawn) [Compound 6, 3-[5-(aminomethyl)-4-methyl-1-oxo-2,3-dihydro-1H-isoindol-2-yl]piperidine-2,6-dione], the “Geomean absolute IC50 by molecule, 72 H” value with H929 cells is given as “Inactive”. Besides, the IC50 in the assay with Hep3B cells is ≤ 100 nM.
Regarding `NCc1cc(F)c2c(c1)CN(C1CCC(=O)NC1=O)C2=O` (stereo not drawn) [Compound 7, 3-[5-(aminomethyl)-7-fluoro-1-oxo-2,3-dihydro-1H-isoindol-2-yl]piperidine-2,6-dione], the inhibition at 10 µM on Ikaros (IKZF1) (10 uM) lay in the range of 0 to 24%; at GSPT1 it was 50 to 79%.
In the case of `C[C@H](N)c1ccc2c(c1)CN(C1CCC(=O)NC1=O)C2=O` (stereo partly drawn) [Compound 8, 3-{5-[(1S)-1-aminoethyl]-1-oxo-2,3-dihydro-1H-isoindol-2-yl}piperidine-2,6-dione], at Ikaros (IKZF1) (20 uM), the inhibition at 20 µM lay within 0 to 24%.
As to `C[C@H](NC(=O)OC(C)(C)C)c1ccc2c(c1)CN(C1CCC(=O)NC1=O)C2=O` (stereo partly drawn) [Compound 9, tert-butyl N-[(1S)-1-[2-(2,6-dioxopiperidin-3-yl)-1-oxo-2,3-dihydro-1H-isoindol-5-yl]ethyl]carbamate], the inhibition at 20 µM on Ikaros (IKZF1) (20 uM) fell in the range of 0 to 24%.
Consider `C[C@@H](N)c1ccc2c(c1)CN(C1CCC(=O)NC1=O)C2=O` (stereo partly drawn) [Compound 10, 3-{5-[(1R)-1-aminoethyl]-1-oxo-2,3-dihydro-1H-isoindol-2-yl}piperidine-2,6-dione], for which the inhibition at 10 µM at Ikaros (IKZF1) (10 uM) is 0 to 24%.
Take `C[C@@H](NC(=O)OC(C)(C)C)c1ccc2c(c1)CN(C1CCC(=O)NC1=O)C2=O` (stereo partly drawn) [Compound 11, tert-butyl N-[(1R)-1-[2-(2,6-dioxopiperidin-3-yl)-1-oxo-2,3-dihydro-1H-isoindol-5-yl]ethyl]carbamate]: the inhibition at 20 µM at Ikaros (IKZF1) (20 uM) is 0 to 24%.
Consider `CN(C)Cc1ccc2c(c1)CN(C1CCC(=O)NC1=O)C2=O` (stereo not drawn) [Compound 16, 3-(5-((dimethylamino)methyl)-1-oxoisoindolin-2-yl)piperidine-2,6-dione], for which the inhibition at 10 µM on Ikaros (IKZF1) (10 uM) lay within 0 to 24%.
Take `O=C1CCC(N2Cc3cc(CO)ccc3C2=O)C(=O)N1` (stereo not drawn) [Compound 17, 3-(5-(hydroxymethyl)-1-oxoisoindolin-2-yl)piperidine-2,6-dione]: the inhibition at 10 µM at Ikaros (IKZF1) (10 uM) fell in the range of 0 to 24%.
Consider `CC(=O)OCc1ccccc1C(=O)NCc1ccc2c(c1)CN(C1CCC(=O)NC1=O)C2=O` (stereo not drawn) [Compound 19, [2-({[2-(2,6-dioxopiperidin-3-yl)-1-oxo-2,3-dihydro-1H-isoindol-5-yl]methyl}carbamoyl)phenyl]methyl acetate], for which, on GSPT1, the inhibition at 10 µM lay within 50 to 79%.
On the same count and under the same terms, for `O=C1CCC(N2Cc3cc(CNC(=O)c4ccccc4CO)ccc3C2=O)C(=O)N1` (stereo not drawn) [Compound 20, N-{[2-(2,6-dioxopiperidin-3-yl)-1-oxo-2,3-dihydro-1H-isoindol-5-yl]methyl}-2-(hydroxymethyl)benzamide] the value was 50 to 79%.
Turning to `CC(C)(C)OC(=O)NCC(=O)NCc1ccc2c(c1)CN(C1CCC(=O)NC1=O)C2=O` (stereo not drawn) [Compound 26, tert-butyl (2-(((2-(2,6-dioxopiperidin-3-yl)-1-oxoisoindolin-5-yl)methyl)amino)-2-oxoethyl)carbamate], the “Geomean absolute IC50 by molecule, 72 H” value in the assay on H929 cells is reported as “Inactive”. Moreover, on Ikaros (IKZF1) (20 uM), the inhibition at 20 µM is 0 to 24%. Further, the IC50 in the assay on Hep3B cells was ≤ 100 nM.
On to `CC(C)(C)OC(=O)N[C@@H](Cc1cnc[nH]1)C(=O)NCc1ccc2c(c1)CN([C@H]1CCC(=O)NC1=O)C2=O` [Compound 30, tert-butyl ((S)-1-(((2-((S)-2,6-dioxopiperidin-3-yl)-1-oxoisoindolin-5-yl)methyl)amino)-3-(1H-imidazol-4-yl)-1-oxopropan-2-yl)carbamate], for which the inhibition at 20 µM at Ikaros (IKZF1) (20 uM) was in the range of 0 to 24%.
Same read-out and setting: for `CC(C)C(N)C(=O)NCc1ccc2c(c1)CN(C1CCC(=O)NC1=O)C2=O` (stereo not drawn) [Compound 32, 2-amino-N-((2-(2,6-dioxopiperidin-3-yl)-1-oxoisoindolin-5-yl)methyl)-3-methylbutanamide] the value was 0 to 24%; for `CC(C)(C)OC(=O)NC(C)(C)C(=O)NCc1ccc2c(c1)CN(C1CCC(=O)NC1=O)C2=O` (stereo not drawn) [Compound 33, tert-butyl (1-(((2-(2,6-dioxopiperidin-3-yl)-1-oxoisoindolin-5-yl)methyl)amino)-2-methyl-1-oxopropan-2-yl)carbamate], 0 to 24%; for `CC(C)(N)C(=O)NCc1ccc2c(c1)CN(C1CCC(=O)NC1=O)C2=O` (stereo not drawn) [Compound 34, 2-amino-N-((2-(2,6-dioxopiperidin-3-yl)-1-oxoisoindolin-5-yl)methyl)-2-methylpropanamide], 0 to 24%.
Consider `N=C(N)NCCCC(N)C(=O)NCc1ccc2c(c1)CN(C1CCC(=O)NC1=O)C2=O` (stereo not drawn) [Compound 38, 2-amino-N-((2-(2,6-dioxopiperidin-3-yl)-1-oxoisoindolin-5-yl)methyl)-5-guanidinopentanamide], for which, in the assay with H929 cells, the “Geomean absolute IC50 by molecule, 72 H” value was “Inactive”. Also, the IC50 in the assay with Hep3B cells was 100 to 1000 nM.
As for `O=C1CCC(N2Cc3cc(CNC(=O)[C@@H]4CCCN4)ccc3C2=O)C(=O)N1` (stereo partly drawn) [Compound 43, (2S)—N-((2-(2,6-dioxopiperidin-3-yl)-1-oxoisoindolin-5-yl)methyl)pyrrolidine-2-carboxamide hydrochloride], the “Geomean absolute IC50 by molecule, 72 H” value in the assay with H929 cells was “Inactive”. Further, the results for the IC50 in the assay on KG-1 cells and in the assay with Hep3B cells were 1000 to 5000 nM and 100 to 1000 nM, respectively. The inhibition at 20 µM at Ikaros (IKZF1) (20 uM) lay within 0 to 24%.
As to `CC1c2cc(CN)ccc2C(=O)N1C1CCC(=O)NC1=O` (stereo not drawn) [Compound 52, 3-[5-(aminomethyl)-3-methyl-1-oxo-2,3-dihydro-1H-isoindol-2-yl]piperidine-2,6-dione], in the assay on H929 cells, the “Geomean absolute IC50 by molecule, 72 H” value is recorded as “Inactive”. In addition, the inhibition at 10 µM fell in the range of 0 to 24% on Ikaros (IKZF1) (10 uM) and 80 to 100% on GSPT1. Also, the IC50 in the assay with Hep3B cells was ≤ 100 nM.
For the compound `O=C1CCC(N2Cc3cc(C(=O)O)ccc3C2=O)C(=O)N1` (stereo not drawn) [Compound 53], the inhibition at 1 µM at GSPT1 (1 uM) lay within 50 to 79%. Further, the inhibition at 10 µM on GSPT1 lay within 80 to 100%.
Turning to `O=C1CCC(N2Cc3cc(C(=O)O)c(F)cc3C2=O)C(=O)N1` (stereo not drawn) [Compound 54, 2-(2,6-dioxopiperidin-3-yl)-6-fluoro-1-oxo-2,3-dihydro-1H-isoindole-5-carboxylic acid], the inhibition at 10 µM on Ikaros (IKZF1) (10 uM) was in the range of 0 to 24%; at GSPT1, 80 to 100%.
